Experimental data reported in article PMC7367873, “Dissecting the sequence determinants for dephosphorylation by the catalytic subunits of phosphatases PP1 and PP2A” (Nature Communications, 2020).
Values belong to the substance of their own block, whether it stands above or below them.

Experiments:
[1] = system: GFP-14-3-3β and its binding proteins; test: GFP-14-3-3β co-IP with LC-MS/MS label-free quantification, untreated versus PP1c-treated; set-up: species or system human
Protocol: (§1) HeLa Kyoto cells expressing transiently transfected pEGFP(C1)-14-3-3β or pEGFP(C1) control plasmid, were incubated with 20 nM Calyculin A (# 9902 S, Cell Signaling Technology) for 12 min. Cells were washed twice on ice with cold PBS and after addition of 500 µL lysis buffer (100 mM NaCl, 10 mM Tris, 0.1% IGEPAL, 1 mM EDTA, 1 mM EGTA, 20 nM Calyculin A, 1x cOmplete Mini protease inhibitor cocktail (Sigma), 1 mM DTT, 1 mM MnCl2) cells were scraped from plates, lysed by 10 pushes through an injection needle (21 G, BD) and the insoluble fraction was pelleted by centrifugation (10 min, 10^4 rcf, 4 °C). Supernatants were then subjected to incubation with 1 µM recombinant phosphatase or buffer for 1 h at 30 °C. Next, we subjected samples to immunoprecipitation using α-GFP nanobodies covalently coupled to agarose beads (2 h, 4 °C, obtained from the EMBL PEPcore Core Facility). Beads were then washed three times with lysis buffer and samples were eluted in 1x LDS sample buffer (Thermo Fisher Scientific) by heating to 70 °C for 10 min.
(§2) The samples were then reduced with 25 mM dithiothreitol (10 min at 70 °C) and alkylated with 55 mM chloroacetamide (room temperature, 30 min, in the dark). Proteins were run on a precast 4–12% NuPAGE gel (ThermoFisher Scientific) for about 1 cm to concentrate the sample prior to in-gel tryptic digestion, which was performed according to the standard procedures. The peptides obtained were dried to completeness and resuspended in 12 µL of buffer A (0.1% FA), and 5 µL of sample were injected per MS measurement. The experiment was carried out in three independent replicates.
(§3) The samples were analyzed by LC-MS/MS on a Dionex Ultimate 3000 nano-HPLC coupled online to a Fusion Lumos Tribrid mass spectrometer (Thermo Fisher Scientific). Peptides were delivered to a trap column (75 µm × 2 cm, packed in-house with 5 µm C18 resin; Reprosil PUR AQ, Dr. Maisch) and washed using 0.1% FA at a flow rate of 5 µL/min for 10 min. Subsequently, peptides were transferred to an analytical column (75 µm × 45 cm, packed in-house with 3 µm C18 resin; Reprosil Gold) applying a flow rate of 300 nL/min and separated using a 60 min linear gradient from 4% to 32% LC solvent B (0.1% FA, 5% DMSO in ACN) in LC solvent A (0.1% FA in 5% DMSO). The eluate from the analytical column was sprayed via a stainless steel emitter (Thermo Fisher Scientific) at a source voltage of 2.1 kV into the mass spectrometer. The transfer capillary was heated to 275 °C. The Fusion Lumos was operated in positive ionization mode and data-dependent acquisition (DDA), automatically switching between MS1 and MS2 spectrum acquisition. Full scan MS1 spectra were recorded in the Orbitrap from 360 to 1300 m/z at a resolution of 60k (automatic gain control (AGC) target value of 4e5 charges, maximum injection time (maxIT) of 50 ms). Up to 20 peptide precursors were isolated (isolation window, 1.7 m/z; maximum injection time, 25 ms; and AGC value, 1e5), fragmented by high-energy collision-induced dissociation (HCD) using 30% normalized collision energy (NCE), and analyzed at a resolution of 15k in the Orbitrap. Precursor ions that were singly charged, unassigned, or with charge states >6+ were excluded. The dynamic exclusion duration of fragmented precursor ions was 20 s.
(§4) Peptide and protein identification and LFQ were performed using MaxQuant software (version 1.6.1.0)[64] by searching the data against all canonical protein sequences as annotated in the Swissprot reference database (human proteins only, 20193 entries, downloaded 22 March 2016, internally annotated with PFAM domains) using the embedded search engine Andromeda[65]. The MaxQuant search was performed using two variable modifications; oxidation of methionine and N-terminal protein acetylation. Carbamidomethylation on cysteines was specified as a fixed modification. Trypsin (Trypsin/P) was specified as the proteolytic enzyme with up to two allowed missed cleavage sites.

GFP-14-3-3β = GFP-14-3-3β co-IP with LC-MS/MS, untreated GFP-14-3-3β versus GFP control (14-3-3 interactome); format: binding, human
Protocol: as §1, §2, §3, §4

[2] = PP1 vs untreated, LFQ intensities, 3 replicates each
[3] = untreated vs GFP, LFQ intensities, 3 replicates each
[4] = PP1 vs untreated, label-free quantification
[5] = untreated vs GFP, label-free quantification
[6] = GFP-14-3-3β co-IP LC-MS/MS, PP1 vs untreated, student's t-test, label-free quantification, 3 replicates each
[7] = GFP-14-3-3β co-IP LC-MS/MS, untreated vs GFP, student's t-test, label-free quantification, 3 replicates each
[8] = pairwise comparison PP1 vs untreated
[9] = pairwise comparison untreated vs GFP
[10] = pairwise comparison PP1 vs untreated, student's t-test, 3 replicates each, LC-MS/MS label-free quantification
[11] = pairwise comparison untreated GFP-14-3-3β vs GFP, student's t-test, 3 replicates each, LC-MS/MS label-free quantification
[12] = PP1 vs untreated, LFQ intensities, replicates 1-3
[13] = untreated vs GFP, LFQ intensities, replicates 1-3
[14] = log2 difference, pairwise comparison PP1 vs untreated, label-free quantification, 3 replicates each
[15] = log2 difference, pairwise comparison untreated vs GFP, label-free quantification, 3 replicates each

Difference (log2), PP1 vs untreated [1, 2]: 0.4338 log2
Substance: ABCF1
Difference (log2), untreated vs GFP (GFP-14-3-3β; [3]): 1.553 log2

Difference (log2), PP1 vs untreated [1, 4]: 0.7956 log2
Substance: AGO2
Difference (log2), untreated vs GFP (GFP-14-3-3β; [5]): 0.05278 log2

Difference (log2), PP1 vs untreated [1, 6]: -0.4038 log2
Substance: AHNAK
Difference (log2), untreated vs GFP (GFP-14-3-3β; [7]): -1.21 log2

Difference (log2), PP1 vs untreated [1, 6]: -0.6453 log2
Substance: AKAP13
Difference (log2), untreated vs GFP (GFP-14-3-3β; [7]): 1.366 log2

Difference (log2), PP1 vs untreated [1, 8]: 0.07284 log2
Substance: ANXA2;ANXA2P2
Difference (log2), untreated vs GFP (GFP-14-3-3β; [9]): -0.03703 log2

Difference (log2), PP1 vs untreated [1, 8]: 0.0453 log2
Substance: APC
Difference (log2), untreated vs GFP (GFP-14-3-3β; [9]): 0.7989 log2

Difference (log2), PP1 vs untreated [1, 10]: -3.95 log2
Substance: ARAF
Difference (log2), untreated vs GFP (GFP-14-3-3β; [11]): 3.851 log2

Difference (log2), PP1 vs untreated [1, 10]: -2.341 log2
Substance: ARHGAP21
Difference (log2), untreated vs GFP (GFP-14-3-3β; [11]): 4.914 log2

Difference (log2), PP1 vs untreated [1, 12]: -1.778 log2
Substance: ARHGEF5
Difference (log2), untreated vs GFP (GFP-14-3-3β; [13]): 3.791 log2

Difference (log2), PP1 vs untreated [1, 2]: 0.6228 log2
Substance: ASCC3
Difference (log2), untreated vs GFP (GFP-14-3-3β; [3]): -0.1721 log2

Difference (log2), PP1 vs untreated [1, 14]: 1.371
Substance: ATP5B
Difference (log2), untreated vs GFP (GFP-14-3-3β; [15]): -0.3021

Difference (log2), PP1 vs untreated [1, 12]: -1.628 log2
Substance: BCLAF1
Difference (log2), untreated vs GFP (GFP-14-3-3β; [13]): 1.7962 log2

Difference (log2), PP1 vs untreated [1, 12]: -1.253 log2
Substance: BRAF
Difference (log2), untreated vs GFP (GFP-14-3-3β; [13]): 7.361 log2

Difference (log2), PP1 vs untreated [1, 6]: -0.6324 log2
Substance: CAD
Difference (log2), untreated vs GFP (GFP-14-3-3β; [7]): 0.93 log2

Difference (log2), PP1 vs untreated [1, 4]: 0.8223 log2
Substance: CCT3
Difference (log2), untreated vs GFP (GFP-14-3-3β; [5]): 0.2505 log2

Difference (log2), PP1 vs untreated [1, 10]: -2.392 log2
Substance: CD44
Difference (log2), untreated vs GFP (GFP-14-3-3β; [11]): 0.8931 log2

Difference (log2), PP1 vs untreated [1, 2]: 0.7153 log2
Substance: CD109
Difference (log2), untreated vs GFP (GFP-14-3-3β; [3]): -1.476 log2

Difference (log2), PP1 vs untreated [1, 2]: 0.4617 log2
Substance: CEP170
Difference (log2), untreated vs GFP (GFP-14-3-3β; [3]): 2.101 log2

Difference (log2), PP1 vs untreated [1, 2]: 0.4849 log2
Substance: CFL1
Difference (log2), untreated vs GFP (GFP-14-3-3β; [3]): -1.088 log2

Difference (log2), PP1 vs untreated [1, 6]: -0.3658 log2
Substance: CHD4
Difference (log2), untreated vs GFP (GFP-14-3-3β; [7]): 2.168 log2

Difference (log2), PP1 vs untreated [1, 6]: -0.2118 log2
Substance: CKAP5
Difference (log2), untreated vs GFP (GFP-14-3-3β; [7]): -0.6501 log2

Difference (log2), PP1 vs untreated [1, 6]: -0.7054 log2
Substance: CLASP1
Difference (log2), untreated vs GFP (GFP-14-3-3β; [7]): 1.4296 log2

Difference (log2), PP1 vs untreated [1, 4]: 1.1943 log2
Substance: CLPX
Difference (log2), untreated vs GFP (GFP-14-3-3β; [5]): 0.9407 log2

Difference (log2), PP1 vs untreated [1, 6]: -0.2648 log2
Substance: CLTC
Difference (log2), untreated vs GFP (GFP-14-3-3β; [7]): 0.0549 log2

Difference (log2), PP1 vs untreated [1, 2]: 0.3782 log2
Substance: CORO1C
Difference (log2), untreated vs GFP (GFP-14-3-3β; [3]): -0.8872 log2

Difference (log2), PP1 vs untreated [1, 8]: 0.2293 log2
Substance: CSE1L
Difference (log2), untreated vs GFP (GFP-14-3-3β; [9]): -0.7283 log2

Difference (log2), PP1 vs untreated [1, 6]: -0.3213 log2
Substance: DDX6
Difference (log2), untreated vs GFP (GFP-14-3-3β; [7]): 1.378 log2

Difference (log2), PP1 vs untreated [1, 6]: -0.7087 log2
Substance: DDX21
Difference (log2), untreated vs GFP (GFP-14-3-3β; [7]): 2.481 log2

Difference (log2), PP1 vs untreated [1, 14]: 1.555
Substance: DDX60
Difference (log2), untreated vs GFP (GFP-14-3-3β; [15]): -0.05993

Difference (log2), PP1 vs untreated [1, 10]: -5.672 log2
Substance: DENND4A
Difference (log2), untreated vs GFP (GFP-14-3-3β; [11]): 5.3156 log2

Difference (log2), PP1 vs untreated [1, 10]: -4.253 log2
Substance: DENND4C
Difference (log2), untreated vs GFP (GFP-14-3-3β; [11]): 3.4091 log2

Difference (log2), PP1 vs untreated [1, 6]: -0.3598 log2
Substance: DHX9
Difference (log2), untreated vs GFP (GFP-14-3-3β; [7]): 1.512 log2

Difference (log2), PP1 vs untreated [1, 8]: -0.1402 log2
Substance: DNAJA1
Difference (log2), untreated vs GFP (GFP-14-3-3β; [9]): -0.4796 log2

Difference (log2), PP1 vs untreated [1, 2]: 0.6145 log2
Substance: DNAJA2
Difference (log2), untreated vs GFP (GFP-14-3-3β; [3]): -1.855 log2
